Legend:
Format in all cases: cell-based
[1] = system: Enterovirus strain 71; experiment: CPE inhibition in mammalian cell culture, EV71; conditions: for inhibition at 1 µM: EV71, Conc. 1.0 μM; for inhibition at 0.01 µM: EV71, Conc. 0.01 μM
[2] = system: Human parechovirus strain 1; experiment: CPE inhibition in mammalian cell culture, HPeV-1; conditions: Parechovirus A; HPeV-1, Conc. 10.0 μM; read-out: % inh.
[3] = system: Enterovirus strain 30; experiment: CPE inhibition in mammalian cell culture, EV30
[4] = system: coxsackie B virus strain 5; experiment: CPE inhibition in mammalian cell culture, Cox-B5; conditions: read-out: % inh.
[5] = system: Ljungan virus strain 145; experiment: CPE inhibition in mammalian cell culture, LV145; conditions: Parechovirus B; for inhibition at 10 µM: LV145, Conc. 10.0 μM; for inhibition at 1 µM: LV145, Conc. 1.0 μM
[6] = system: Ljungan virus strain 012; experiment: CPE inhibition in mammalian cell culture, LV012; conditions: Parechovirus B, read-out: % inh.; for inhibition at 10 µM: LV012, Conc. 10 μM
[7] = system: coxsackie B virus strain 3; experiment: CPE inhibition in mammalian cell culture, Cox-B3; conditions: read-out: % inh.
[8] = system: coxsackie B virus strain 1; experiment: CPE inhibition in mammalian cell culture, Cox-B1; conditions: read-out: % inh.

Compound: Cc1cc(NCc2ccccc2)n2nc(C)c(-c3ccc(F)cc3)c2n1 [Ex. 13, N-benzyl-3-(4-fluorophenyl)-2,5-dimethyl-pyrazolo[1,5-a]pyrimidin-7-amine]
- inhibition at 1 µM [1]: 66%

Compound: Cc1cc(NCc2ccccc2)n2ncc(-c3ccc(Cl)cc3)c2n1 [Ex. 25, N-benzyl-3-(4-chlorophenyl)-5-methyl-pyrazolo[1,5-a]pyrimidin-7-amine]
- inhibition at 10 µM [2]: 24%

Compound: Cc1ccc(-c2c(C)nn3c(NCc4cccnc4)cc(C)nc23)cc1 [Ex. 34, 2,5-dimethyl-3-(p-tolyl)-N-(3-pyridylmethyl)pyrazolo[1,5-a]pyrimidin-7-amine]
- inhibition at 1 µM [1]: 100%

Compound: COc1ccc(-c2c(C)nn3c(NCc4ccccn4)cc(C)nc23)cc1OC [Ex. 35, 3-(3,4-dimethoxyphenyl)-2,5-dimethyl-N-(2-pyridylmethyl)pyrazolo[1,5-a]pyrimidin-7-amine]
- inhibition at 0.1 µM ([3]; EV30, Conc. 0.1 μM): 88%

Compound: Cc1cc(NCc2cccnc2)n2nc(C)c(-c3ccc(F)cc3)c2n1 [Ex. 36, 3-(4-fluorophenyl)-2,5-dimethyl-N-(3-pyridylmethyl)pyrazolo[1,5-a]pyrimidin-7-amine]
- inhibition at 1 µM [4]: 97%

Compound: COc1ccc(-c2c(C)nn3c(NCc4ccccc4)cc(C)nc23)cc1OC [Ex. 40, N-benzyl-3-(3,4-dimethoxyphenyl)-2,5-dimethyl-pyrazolo[1,5-a]pyrimidin-7-amine]
- inhibition at 0.01 µM [1]: 100%

Compound: COc1ccc(-c2c(C)nn3c(NC4CCCCC4)cc(C)nc23)cc1OC [Ex. 43, N-cyclohexyl-3-(3,4-dimethoxyphenyl)-2,5-dimethyl-pyrazolo[1,5-a]pyrimidin-7-amine]
- inhibition at 10 µM [2]: 46%

Compound: Cc1cc(NCc2cccnc2)n2nc(C)c(-c3ccc(Cl)cc3)c2n1 [Ex. 45, 3-(4-chlorophenyl)-2,5-dimethyl-N-(3-pyridylmethyl)pyrazolo[1,5-a]pyrimidin-7-amine]
- inhibition at 1 µM [1]: 100%

Compound: COc1ccc(-c2c(C)nn3c(Nc4ccc(Br)cc4)cc(C)nc23)cc1OC [Ex. 46, N-(4-bromophenyl)-3-(3,4-dimethoxyphenyl)-2,5-dimethyl-pyrazolo[1,5-a]pyrimidin-7-amine]
- inhibition at 10 µM [5]: 92%

Compound: COc1ccc(-c2c(C)nn3c(Nc4ccc(Cl)cc4)cc(C)nc23)cc1OC [Ex. 47, N-(4-chlorophenyl)-3-(3,4-dimethoxyphenyl)-2,5-dimethyl-pyrazolo[1,5-a]pyrimidin-7-amine]
- inhibition at 10 µM [2]: 56%

Compound: COc1ccc(-c2c(C)nn3c(Nc4cccc(Cl)c4)cc(C)nc23)cc1OC [Ex. 51, N-(3-chlorophenyl)-3-(3,4-dimethoxyphenyl)-2,5-dimethyl-pyrazolo[1,5-a]pyrimidin-7-amine]
- inhibition at 10 µM [5]: 94%

Compound: COc1ccc(-c2c(C)nn3c(Nc4ccc(C)c(C)c4)cc(C)nc23)cc1OC [Ex. 52, 3-(3,4-dimethoxyphenyl)-N-(3,4-dimethylphenyl)-2,5-dimethyl-pyrazolo[1,5-a]pyrimidin-7-amine]
- inhibition at 10 µM [5]: 63%

Compound: COc1ccc(-c2c(C)nn3c(Nc4ccc(C)c(Cl)c4)cc(C)nc23)cc1OC [Ex. 55, N-(3-chloro-4-methyl-phenyl)-3-(3,4-dimethoxyphenyl)-2,5-dimethyl-pyrazolo[1,5-a]pyrimidin-7-amine]
- inhibition at 1 µM [5]: 41%

Compound: COc1ccc(-c2c(C)nn3c(Nc4cc(C)cc(C)c4)cc(C)nc23)cc1OC [Ex. 56, 3-(3,4-dimethoxyphenyl)-N-(3,5-dimethylphenyl)-2,5-dimethyl-pyrazolo[1,5-a]pyrimidin-7-amine]
- inhibition at 1 µM [5]: 61%

Compound: COc1ccc(-c2c(C)nn3c(Nc4ccc(C(C)C)cc4)cc(C)nc23)cc1OC [Ex. 60, 3-(3,4-dimethoxyphenyl)-N-(4-isopropylphenyl)-2,5-dimethyl-pyrazolo[1,5-a]pyrimidin-7-amine]
- inhibition at 1 µM [1]: 69%

Compound: COc1cccc(Nc2cc(C)nc3c(-c4ccc(OC)c(OC)c4)c(C)nn23)c1 [Ex. 61, 3-(3,4-dimethoxyphenyl)-N-(3-methoxyphenyl)-2,5-dimethyl-pyrazolo[1,5-a]pyrimidin-7-amine]
- inhibition at 10 µM [5]: 85%

Compound: COc1ccc(-c2c(C)nn3c(NCCc4ccccn4)cc(C)nc23)cc1 [Ex. 68, 3-(4-methoxyphenyl)-2,5-dimethyl-N-[2-(2-pyridyl)ethyl]pyrazolo[1,5-a]pyrimidin-7-amine]
- inhibition at 10 µM [5]: 86%

Compound: COc1ccc(-c2c(C)nn3c(Nc4ccncc4)cc(C)nc23)cc1OC [Ex. 74, 3-(3,4-dimethoxyphenyl)-2,5-dimethyl-N-(4-pyridyl)pyrazolo[1,5-a]pyrimidin-7-amine]
- inhibition at 10 µM [6]: 55%

Compound: COc1ccc(-c2c(C)nn3c(NCc4ccc(OC(F)(F)F)cc4)cc(C)nc23)cc1OC [Ex. 76, 3-(3,4-dimethoxyphenyl)-2,5-dimethyl-N-[[4-(trifluoromethoxy)phenyl]methyl]pyrazolo[1,5-a]pyrimidin-7-amine]
- inhibition at 1 µM [7]: 100%

Compound: COc1ccc(-c2c(C)nn3c(NCc4ccc(NC(C)=O)cc4)cc(C)nc23)cc1OC [Ex. 77, N-[4-[[[3-(3,4-dimethoxyphenyl)-2,5-dimethyl-pyrazolo[1,5-a]pyrimidin-7-yl]amino]methyl]phenyl]acetamide]
- inhibition at 0.1 µM [7]: 60%

Compound: COc1ccc(-c2c(C)nn3c(NCc4ccc(N(C)C)cc4)cc(C)nc23)cc1OC [Ex. 78, 3-(3,4-dimethoxyphenyl)-N-[(4-dimethylaminophenyl)methyl]-2,5-dimethyl-pyrazolo[1,5-a]pyrimidin-7-amine]
- inhibition at 0.1 µM [8]: 94%

Compound: COc1ccc(-c2c(C)nn3c(NCc4cc[n+]([O-])cc4)cc(C)nc23)cc1OC [Ex. 83, 3-(3,4-dimethoxyphenyl)-2,5-dimethyl-N-[(1-oxidopyridin-1-ium-4-yl)methyl]pyrazolo[1,5-a]pyrimidin-7-amine]
- inhibition at 0.01 µM [1]: 82%

Compound: COc1ccc(-c2c(C)nn3c(NCc4ccc(S(C)(=O)=O)cc4)cc(C)nc23)cc1OC [Ex. 84, 3-(3,4-dimethoxyphenyl)-2,5-dimethyl-N-[(4-methylsulfonylphenyl)methyl]pyrazolo[1,5-a]pyrimidin-7-amine]
- inhibition at 0.1 µM [7]: 84%

Compound: COc1ccc(-c2c(C)nn3c(NCCc4ccccn4)cc(C)nc23)cc1OC [Ex. 85, 3-(3,4-dimethoxyphenyl)-2,5-dimethyl-N-[2-(2-pyridyl)ethyl]pyrazolo[1,5-a]pyrimidin-7-amine]
- inhibition at 1 µM [8]: 98%

Compound: COc1ccc(-c2c(C)nn3c(NCc4ccc(C(C)(C)C)cc4)cc(C)nc23)cc1OC [Ex. 86, N-[(4-tert-butylphenyl)methyl]-3-(3,4-dimethoxyphenyl)-2,5-dimethyl-pyrazolo[1,5-a]pyrimidin-7-amine]
- inhibition at 10 µM [6]: 48%

Compound: COc1ccc(-c2c(C)nn3c(NCCc4cccs4)cc(C)nc23)cc1OC [Ex. 88, 3-(3,4-dimethoxyphenyl)-2,5-dimethyl-N-[2-(2-thienyl)ethyl]pyrazolo[1,5-a]pyrimidin-7-amine]
- inhibition at 1 µM ([3]; EV30, Conc. 1.0 μM, read-out: % inh.): 88%

Compound: COc1ccc(-c2c(C)nn3c(NC4Cc5ccccc5C4)cc(C)nc23)cc1OC [Ex. 91, 3-(3,4-dimethoxyphenyl)-N-indan-2-yl-2,5-dimethyl-pyrazolo[1,5-a]pyrimidin-7-amine]
- inhibition at 1 µM [4]: 75%

Compound: COc1ccc(-c2c(C)nn3c(Nc4ncc(C)s4)cc(C)nc23)cc1OC [Ex. 93, N-[3-(3,4-dimethoxyphenyl)-2,5-dimethyl-pyrazolo[1,5-a]pyrimidin-7-yl]-5-methyl-thiazol-2-amine]
- inhibition at 100 µM ([6]; LV012, Conc. 100 μM): 42%

Compound: COc1ccc(-c2c(C)nn3c(NCc4cccc5ccccc45)cc(C)nc23)cc1OC [Ex. 96, 3-(3,4-dimethoxyphenyl)-2,5-dimethyl-N-(1-naphthylmethyl)pyrazolo[1,5-a]pyrimidin-7-amine]
- inhibition at 0.1 µM [8]: 100%

Compound: COc1ccc(-c2c(C)nn3c(NCc4ccc(S(N)(=O)=O)cc4)cc(C)nc23)cc1OC [Ex. 97, 4-[[[3-(3,4-dimethoxyphenyl)-2,5-dimethyl-pyrazolo[1,5-a]pyrimidin-7-yl]amino]methyl]benzenesulfonamide]
- inhibition at 0.1 µM ([1]; EV71, Conc. 0.1 μM): 94%

Compound: COc1ccc(-c2cnn3c(NCc4ccc(F)cc4)cc(C)nc23)cc1OC [Ex. 99, 3-(3,4-dimethoxyphenyl)-N-[(4-fluorophenyl)methyl]-5-methyl-pyrazolo[1,5-a]pyrimidin-7-amine]
- inhibition at 0.1 µM [7]: 100%

Compound: Cc1cc(NCc2ccc(F)cc2)n2nc(C)c(-c3ccc4c(c3)OCO4)c2n1 [Ex. 102, 3-(1,3-benzodioxol-5-yl)-N-[(4-fluorophenyl)methyl]-2,5-dimethyl-pyrazolo[1,5-a]pyrimidin-7-amine]
- inhibition at 1 µM [7]: 100%

Compound: COc1cc(-c2c(C)nn3c(NCc4ccc(F)cc4)cc(C)nc23)cc(OC)c1OC [Ex. 105, N-[(4-fluorophenyl)methyl]-2,5-dimethyl-3-(3,4,5-trimethoxyphenyl)pyrazolo[1,5-a]pyrimidin-7-amine]
- inhibition at 10 µM ([3]; EV30, Conc. 10 μM, read-out: % inh.): 67%

Compound: Cc1cc(NCc2ccc(F)cc2)n2nc(C)c(-c3ccc(F)c(F)c3)c2n1 [Ex. 106, 3-(3,4-difluorophenyl)-N-[(4-fluorophenyl)methyl]-2,5-dimethyl-pyrazolo[1,5-a]pyrimidin-7-amine]
- inhibition at 10 µM [5]: 100%

Compound: COc1ccc(-c2c(C)nn3c(NCc4ccc(C)cc4)cc(C)nc23)cc1F [Ex. 108, 3-(3-fluoro-4-methoxy-phenyl)-2,5-dimethyl-N-(p-tolylmethyl)pyrazolo[1,5-a]pyrimidin-7-amine]
- inhibition at 1 µM [8]: 100%

Compound: Cc1ccc(CNc2cc(C)nc3c(-c4ccc(O)c(O)c4)c(C)nn23)cc1 [Ex. 110, 4-[2,5-dimethyl-7-(p-tolylmethylamino)pyrazolo[1,5-a]pyrimidin-3-yl]benzene-1,2-diol]
- inhibition at 1 µM [4]: 72%
